# Source: patent publication US11286459B2, “Cell culturing method using nucleic acid-containing medium” (Astellas Pharma Inc., priority 2015, dated 2022)
# How the values were obtained:
# Format in all cases: cell-based, Chinese hamster
# [1] = system: IgG-expressing CHO cell line (anti-human α9 antibody RY9A2v12 (M34L) 012); test: Fed-batch culture with deoxyuridine, thymidine and/or deoxycytidine (Example 4); details: 25 mg/L
# Method: Using a culture medium for animal cells as a cell growth medium, fed-batch culture of an IgG-expressing CHO cell line (a CHO cell line in which an anti-human α9 antibody ([…]) 012) had been recombinantly expressed, as described in WO 2009/088064) was started at an initial viable cell density of 1×10^6 cells/mL under the conditions of 36.5° C. and 5% CO2. At the start of culture, deoxyuridine, thymidine, and/or deoxycytidine was/were each added to a final concentration of 0 or 25 mg/L according to Table 2. The culture was continued until day 14 of culture while a feed culture medium was added everyday from day 2 of culture. Sampling was done at appropriate timings. Viable cell densities were measured by trypan blue exclusion method, and antibody concentrations were measured by protein A column HPLC. […] [table]
# [2] = system: IgG-expressing CHO cell line (anti-human α9 antibody RY9A2v12 (M34L) 012); test: Fed-batch culture, comparison with uridine and thymidine (Example 8); details: 25 mg/L of each added component
# Method: Using a culture medium for animal cells as a cell growth medium, fed-batch culture of an IgG-expressing CHO cell line (a CHO cell line in which an anti-human α9 antibody ([…]) 012) had been recombinantly expressed, as described in WO 2009/088064) was started at an initial viable cell density of 1×10^6 cells/mL under the conditions of 36.5° C. and 5% CO2. At the start of culture, deoxyuridine, thymidine and deoxycytidine were each added to a final concentration of 25 mg/L. To provide comparative conditions, uridine and thymidine were added, at the start of culture, at concentrations of 7 mg/L and 0.24 mg/L, respectively (these concentrations are the same as those described in Examples of EP 1818392 B1). The culture was continued under each of the different conditions described above until day 14 of culture while a feed medium was added everyday from day 2 of culture. Sampling was done at appropriate timings. Viable cell densities were measured by trypan blue exclusion method, and antibody concentrations were measured by protein A column HPLC. […] In contrast, the highest viable cell densities were approximately 21×10^6 cells/mL in the case of addition of 25 mg/L deoxyuridine (dU25 mg/L), and about 31×10^6 cells/mL in the case of addition of 25 mg/L each of deoxyuridine, thymidine and deoxycytidine (dUdTdC25 mg/L); these values were higher than control.
# [3] = system: IgG-expressing CHO cell line (anti-human α9 integrin antibody RY9A2v12 (M34L) 012); test: Batch culture with deoxyuridine (Example 6)
# Method: Using a culture medium for animal cells as a cell growth medium, batch culture of an IgG-expressing CHO cell line (a CHO cell line in which an anti-human α9 integrin antibody (hereinafter referred to as “anti-human α9 antibody”) (RY9A2v12 (M34L) 012) had been recombinantly expressed, as described in WO 2009/088064) was started at an initial viable cell density of 0.3×10^6 cells/mL under the conditions of 36.5° C. and 5% CO2. At the start of culture, deoxyuridine was added to cultures to a final concentration of 5, 25, 100, 500 or 1000 mg/L, and then the culture was continued for 5 days. Sampling was done at appropriate timings. Viable cell densities were measured bytrypan blue exclusion method, and antibody concentrations were measured by protein A column HPLC.
# [4] = system: Fab′ fragment-expressing CHO cell line (anti-human NGF antibody Fab′ fragment 1-15 (N52D-A)-Fab′); test: Fed-batch culture, comparison with uridine and thymidine (Example 9); details: 25 mg/L of each added component
# Method: Using a culture medium for animal cells as a cell growth medium, fed-batch culture of a Fab′ fragment-expressing CHO cell line (a CHO cell line in which an anti-human NGF antibody Fab′ fragment (1-15 (N52D-A)-Fab′) had been expressed, as described in WO 2013/022083) was started at an initial viable cell density of 1×10^6 cells/mL under the conditions of 36.5° C. and 5% CO2. At the start of culture, deoxyuridine, thymidine and deoxycytidine were each added to a final concentration of 25 mg/L. To provide comparative conditions, uridine and thymidine were added, at the start of culture, at concentrations of 7 mg/L and 0.24 mg/L, respectively (these concentrations are the same as those described in Examples of EP 1818392 B1). The culture was continued under each of the different conditions described above until day 14 of culture while a feed medium was added everyday from day 2 of culture. Sampling was done at appropriate timings. Viable cell densities were measured by trypan blue exclusion method, and antibody concentrations were measured by reverse-phase HPLC.
# [5] = system: IgG-expressing CHO cell line (anti-human TSLP receptor antibody, fully human T7-27); test: Fed-batch culture with deoxyuridine added on day 2 (Example 1); trypan blue exclusion, protein A column HPLC
# Method: Using a culture medium for animal cells as a cell growth medium, fed-batch culture of an IgG-expressing CHO cell line (a CHO cell line in which an anti-human thymic stromal lymphopoietin (TSLP) receptor antibody (fully human T7-27) had been recombinantly expressed, as described in WO 2015/020193) was started at an initial viable cell density of 1×10^6 cells/mL under the conditions of 36.5° C. and 5% CO2. On day 2 of culture, deoxyuridine was added to cultures to a final concentration of 10, 25, 50, 100 or 200 mg/L. The culture was continued until day 14 of culture while a feed medium was added everyday from day 2 of culture. Sampling was done at appropriate timings. Viable cell densities were measured by trypan blue exclusion study, and antibody concentrations were measured by protein A column HPLC. […] It was also observed that even addition of […] deoxyuridine enhancedantibody production during the cell culture until day 10 to day 12.
# [6] = system: IgG-expressing CHO cell line (anti-human TSLP receptor antibody, fully human T7-27); test: Fed-batch culture, comparison with uridine and thymidine (Example 7); details: 25 mg/L of each added component
# Method: Using a culture medium for animal cells as a cell growth medium, fed-batch culture of an IgG-expressing CHO cell line (a CHO cell line in which an anti-human TSLP receptor antibody (fully human T7-27) had been recombinantly expressed, as described in WO 2015/020193) was started at an initial viable cell density of 1×10^6 cells/mL under the conditions of 36.5° C. and 5% CO2. At the start of culture, deoxyuridine, thymidine and deoxycytidine were each added to a final concentration of 25 mg/L. To provide comparative conditions, uridine (U) and thymidine were added, at the start of culture, at concentrations of 7 mg/L and 0.24 mg/L, respectively (these concentrations are the same as those described in Examples of EP 1818392 B1). The culture was continued under each of the different conditions described above until day 14 of culture while a feed culture medium was added everyday from day 2 of culture. Sampling was done at appropriate timings. Viable cell densities were measured by trypan blue exclusion method, and antibody concentrations were measured by protein A column HPLC.
# [7] = system: IgG-expressing CHO cell line (anti-human TSLP receptor antibody, fully human T7-27); test: Fed-batch culture with deoxyuridine in the presence of thymidine and deoxycytidine (Example 2); details: for highest viable cell density observed during the 14 days of culture: at start of culture; for antibody concentration on the final day of culture: day 14
# Method: Using a culture medium for animal cells as a cell growth medium, fed-batch culture of an IgG-expressing CHO cell line (a CHO cell line in which an anti-human TSLP receptor antibody (fully human T7-27) had been recombinantly expressed, as described in WO 2015/020193) was started at an initial viable cell density of 1×10^6 cells/mL under the conditions of 36.5° C. and 5% CO2. At the start of culture, thymidine and deoxycytidine hydrochloride (in the working examples given in the subject specification, deoxycytidine hydrochloride was actually used as deoxycytidine, and the concentrations of deoxycytidine hydrochloride are expressed by using the converted concentration value of deoxycytidine from deoxycytidine hydrochloride.) were each added to cultures to a final concentration of 25 mg/L, and deoxyuridine was added to a final concentration of 10, 25, 40, 55, 70 or 85 mg/L. The culture was continued until day 14 of culture while a feed culture medium was added everyday from day 2 of culture. Sampling was done at appropriate timings. Viable cell densities were measured by trypan blue exclusion method, and antibody concentrations were measured by protein A column HPLC.
# [8] = system: IgG-expressing CHO cell line (anti-human TSLP receptor antibody, fully human T7-27); test: Fed-batch culture with deoxyuridine, thymidine and deoxycytidine added on day 2 (Example 3); details: 25 mg/L of each added component
# Method: Using a culture medium for animal cells as a cell growth medium, fed-batch culture of an IgG-expressing CHO cell line (a CHO cell line in which an anti-human TSLP receptor antibody (fully human T7-27) had been recombinantly expressed, as described in WO 2015/020193) was started at an initial viable cell density of 1×10^6 cells/mL under the conditions of 36.5° C. and 5% CO2. On day 2 of culture, deoxyuridine was added to a final concentration of 25 mg/L, and thymidine and deoxycytidine were each added to cultures to a final concentration of 0 or 25 mg/L according to Table 1. The culture was continued until day 14 of culture while a feed culture medium was added everyday from day 2 of culture. Sampling was done at appropriate timings. Viable cell densities were measured by trypan blue exclusion method, and antibody concentrations were measured by protein A column HPLC. […] In contrast, in the case of addition of deoxyuridine in the presence of 25 mg/L each of thymidine and deoxycytidine (dU-dT-dC), the viable cell density, cell viability, and antibody concentration on the final day of the 14 days of culture were 12×10^6 cells/mL, approximately 78%, and 5.8 g/L, respectively; these values were higher than in the cases of addition of dU, addition of deoxyuridine and deoxycytidine (dU-dC), and addition of deoxyuridine and thymidine (dU-dT). […] [table]
# [9] = 10 mg/L deoxyuridine with 25 mg/L each thymidine and deoxycytidine
# [10] = 25 mg/L deoxyuridine with 25 mg/L each thymidine and deoxycytidine
structure (smiles),measurement,setting,value
Nc1ccn([C@H]2C[C@H](O)[C@@H](CO)O2)c(=O)n1 [deoxycytidine],"effects when added alone (viable cell density, antibody concentration)",[1],no effect
O=c1ccn([C@H]2C[C@H](O)[C@@H](CO)O2)c(=O)[nH]1 [deoxyuridine],highest viable cell density observed during the 14 days of culture,"[2]; at start of culture, control about 16",approximately 21 ×10^6 cells/mL
same,antibody concentrations during culture versus control,[2]; FIG. 16,higher levels than control
same,highest viable cell density observed during the 5 days of culture,"[3]; 100 mg/L deoxyuridine at start of batch culture, control approximately 7",approximately 10 ×10^6 cells/mL
same,effect on cell growth,[3]; any concentration tested from 5 mg/L to 500 mg/L,enhancing effect on cell growth
same,highest viable cell density observed during the 14 days of culture,"[4]; at start of culture, control approximately 14",approximately 26 ×10^6 cells/mL
same,protein concentration on the final day of culture,"[4]; day 14, control approximately 2.2",approximately 3.1 g/L
same,antibody production during the cell culture until day 10 to day 12,[5]; 10 mg/L deoxyuridine,enhanced
same,highest viable cell density observed during the 14 days of culture,"[5]; 25 mg/L deoxyuridine added on day 2, control about 10",about 18 ×10^6 cells/mL
same,antibody concentration on the final day of culture,"[5]; 25 mg/L deoxyuridine added on day 2, day 14, control 3.3",5.5 g/L
same,response to deoxyuridine addition (cell growth and antibody production),[5]; any concentration tested from 10 mg/L to 200 mg/L,enhanced cell growth and antibody production
same,highest viable cell density observed during the 14 days of culture,"[6]; at start of culture, control approximately 12",approximately 21 ×10^6 cells/mL
same,antibody concentration on the final day of culture,"[6]; day 14, control approximately 2.9",approximately 4.6 g/L
same,highest viable cell density observed during the 14 days of culture,[7]; [9],about 27 ×10^6 cells/mL
same,antibody concentration on the final day of culture,[7]; [9],5.9 g/L
same,highest viable cell density observed during the 14 days of culture,[7]; [10],approximately 32 ×10^6 cells/mL
same,antibody concentration on the final day of culture,[7]; [10],6.8 g/L
same,enhancing effects on cell growth and antibody production,"[7]; deoxyuridine 25 mg/L or higher in the presence of thymidine and deoxycytidine, versus 10 mg/L",higher enhancing effects on cell growth and antibody production
same,antibody concentration on the final day of the 14 days of culture,[8],5.1 g/L
same,cell viability on the final day of the 14 days of culture,[8],approximately 61%
same,viable cell density on the final day of the 14 days of culture,[8],approximately 7.6 ×10^6 cells/mL
same,"effects when added alone (viable cell density, antibody concentration)",[1],produce effects
Cc1cn([C@H]2C[C@H](O)[C@@H](CO)O2)c(=O)[nH]c1=O [thymidine],"effects when added alone (viable cell density, antibody concentration)",[1],produce effects
